Experimental data published in US8394786B2, “Quinazoline derivatives” (Janssen Pharmaceutica N.V., priority 2003, dated 2013).

Columns and labels:
EGFR [1] = target: T1, EGFR (Homo sapiens, UniProt P00533); assay: In vitro inhibition of EGFR, Flash Plate or glass-fiber filter technology (C2); assay type: biochemical; parameters: 0.5 μg EGFR-kinase domain/well; conditions: EGFR-kinase domain, 5.0 μM unlabeled ATP, read-out: Kinase activity.(C2): pIC50 (converted)
Summary of the method: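 EGFR kinase domain (0.5 μg/well) phosphorylated poly(GT) with 5.0 μM ATP plus AT^33P, dose response 1·10^−6 to 1·10^−10 M. Flash Plate: biotin-poly(GT), Tris pH 8.0, 30° C, 60 min, scintillation counting. Filter: Tris pH 7.5 with MnCl2, 25° C, 10 min, 33P counted on glass-fiber filter by phosphorimaging.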
Target sequence in this assay (P00533 712-979 limits assumed): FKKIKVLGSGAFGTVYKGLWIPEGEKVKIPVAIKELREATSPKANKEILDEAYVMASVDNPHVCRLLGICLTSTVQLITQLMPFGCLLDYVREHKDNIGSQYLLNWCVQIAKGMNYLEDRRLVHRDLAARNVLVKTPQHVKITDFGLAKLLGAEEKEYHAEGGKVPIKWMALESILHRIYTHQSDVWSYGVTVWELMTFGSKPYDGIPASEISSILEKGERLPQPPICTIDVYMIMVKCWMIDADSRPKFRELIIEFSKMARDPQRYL

SKOV3 cells = assay: Serum starved proliferation assay on the ovarian carcinoma SKOV3 cells (C3); assay type: cell-based; conditions: Homo sapiens, SK-OV-3, 72 h, EGF stimulated (100 ng/ml, 72 hours, serum free) or 72 hours with compounds; MTT cell viability assay; read-out: SKOV3 cell (C3): pIC50 (converted)
Summary of the method: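 SKOV3 cells grown 24 h in 10% FCS, then treated with compound under serum-free conditions (37 °C, 5% CO2) and stimulated 72 h with EGF at 100 ng/ml final; read-out by MTT viability. Alternative format: compound for 72 h after the same 24 h FCS step, also by MTT.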

EGFR [2] = target: T1, EGFR; assay: In vitro inhibition of EGFR using a scintillant proximity assay (C1); assay type: biochemical; parameters: 0.5 μg EGFR-kinase domain/well; conditions: EGFR-kinase domain, poly(GT)biotin, 5.0 μM unlabeled ATP, 30° C. 60 minutes; read-out: EGFR SPA (C1): IC50
Method: In the present EGFR SPA kinase reaction assay, a kinase substrate consisting of biotinylated poly(L-glutamic acid-L-tyrosine) (poly(GT)biotin), is incubated with the aforementioned protein in the presence of (^33P) radiolabeled ATP. (^33P) phosphorylation of the substrate is subsequently measured as light energy emitted using streptavidin-coated SPA beads (Amersham Pharmacia Biotech) by trapping and quantifying the binding of the biotin tagged and radiolabeled substrate.
The EGFR SPA kinase reaction is performed at 30° C. for 60 minutes in a 96-well microtiter plate. For each of the tested compounds a full dose response 1·10^−6M to 1·10^−10M has been performed. IRESSA® and Tarceva™ (erlotinib) were used as reference compounds. The 100 μl reaction volume contains 54.5 mM TrisHCl pH 8.0, 10 mM MgCl2, 100 μM Na3VO4, 5.0 μM unlabeled ATP, 1 mM DTT, 0.009% BSA, 0.8 μCi ^33P-ATP, 0.35 μg/well poly(GT)biotin and 0.5 μg EGFR-kinase domain/well. The reaction is stopped by adding to each well 100 μl of the streptavidin beads (10 mg/ml in PBS+100 mM EDTA+100 μM ATP). The plates are than shaked at 300 rpm for 30 min to allow binding of the biotinylated substrate to the streptavidin coated beads. Than the beads are allowed to settle at the bottom of the plate for 30 minutes. The microtiterplates are centrifuges at 800 rpm for 10 minutes and the amount of phosphorylated (^33P) Poly(GT)biotin is determined by counting (30 sec/well) in a microtiterplate scintillation counter.
Target sequence in this assay (P00533 712-979 limits assumed): as above

EGFR [3] = target: T1, EGFR; assay: ELISA assay of EGFR tyrosine kinase activity (C4); assay type: biochemical; conditions: poly(Glu, Tyr) coated plate, 5 μM ATP, room temperature 10 min
Method: The EGFR ELISA is generally described by Yang, E. B. et al., 2001, Biochimica et Biophysica Acta, 1550; 144.
For the determination of EGFR tyrosine kinase activity, 100 μl of 0.4 μg/ml poly(Glu, Tyr) in PBS was coated per well on a 96-well microplate at 37° C. overnight. […] After washing three times with PBS the plates were either used immediately or stored at 4° C. Prior to the determination of the EGFR tyrosine kinase activity, the coated plates were washed two times with PBS. Next, to each well 88 μl of an ATP dilution (50 mM Tris HCl pH 8.0, 10 mM MgCl2, 100 μM Na3VO4, 1 mM DTT, 5 μM ATP) and 2 μl with various concentrations of the compounds to be tested, were added. The EGFR tyrosine kinase-catalysed reaction was started by the addition of 10 μl of diluted EGFR (dilution→0.05 μg per well enzyme diluted in 50 mM TrisHCl pH 8.0+0.1% BSA). After incubation at room temperature for 10 min, the reaction was stopped by washing five times with PBS with 0.1% Tween 20. Subsequently […] of recombinant anti-phosphotyrosine horseradish peroxidase conjugate (1:2500) in BSA (10 mg/ml in PBS) was added. After incubation at room temperature for 1 h, the microplate was washed five times with PBS/Tween 20. After the microplate was incubated with 100 μl of TMB-ELISA (1-step Ultra TMB-ELISA, Pierce) until colour development, 100 μl of 0.5 M H2SO4 was added to stop the reaction, and it was read in a microplate reader at 450-655 nm.
Target sequence in this assay (P00533 25-1210): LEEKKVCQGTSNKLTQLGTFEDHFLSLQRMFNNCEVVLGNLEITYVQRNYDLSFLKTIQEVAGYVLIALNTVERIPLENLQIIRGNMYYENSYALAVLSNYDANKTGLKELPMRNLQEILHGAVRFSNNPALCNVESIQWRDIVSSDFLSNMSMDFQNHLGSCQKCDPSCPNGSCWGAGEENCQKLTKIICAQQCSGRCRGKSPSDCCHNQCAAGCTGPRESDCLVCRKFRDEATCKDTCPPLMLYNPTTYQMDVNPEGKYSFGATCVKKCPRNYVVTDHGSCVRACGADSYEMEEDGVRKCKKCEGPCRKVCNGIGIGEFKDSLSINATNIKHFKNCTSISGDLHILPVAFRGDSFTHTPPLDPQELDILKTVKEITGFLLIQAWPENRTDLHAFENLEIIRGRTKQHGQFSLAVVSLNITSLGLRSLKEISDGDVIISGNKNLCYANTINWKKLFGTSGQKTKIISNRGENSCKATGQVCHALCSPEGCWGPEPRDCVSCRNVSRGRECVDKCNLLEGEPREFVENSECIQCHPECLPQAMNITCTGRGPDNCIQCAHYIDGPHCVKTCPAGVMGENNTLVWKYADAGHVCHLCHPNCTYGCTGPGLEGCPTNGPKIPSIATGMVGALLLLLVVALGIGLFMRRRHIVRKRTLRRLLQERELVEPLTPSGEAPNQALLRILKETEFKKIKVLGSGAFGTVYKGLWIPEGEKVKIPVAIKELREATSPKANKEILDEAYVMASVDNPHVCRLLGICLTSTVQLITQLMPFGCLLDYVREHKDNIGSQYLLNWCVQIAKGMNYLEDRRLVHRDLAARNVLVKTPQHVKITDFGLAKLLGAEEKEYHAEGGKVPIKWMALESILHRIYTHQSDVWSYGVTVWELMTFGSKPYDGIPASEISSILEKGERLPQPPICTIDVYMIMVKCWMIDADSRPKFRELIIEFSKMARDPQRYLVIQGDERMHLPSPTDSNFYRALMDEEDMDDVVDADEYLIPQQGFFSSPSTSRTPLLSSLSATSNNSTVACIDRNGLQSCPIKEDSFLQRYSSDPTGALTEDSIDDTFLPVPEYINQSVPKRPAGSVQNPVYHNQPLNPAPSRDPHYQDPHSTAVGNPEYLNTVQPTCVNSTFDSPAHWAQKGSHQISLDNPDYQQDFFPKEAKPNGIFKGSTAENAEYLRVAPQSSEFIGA

A431 cells = assay: Proliferation assay on the squamous carcinoma cell line A431 cells (C5); assay type: cell-based; conditions: Homo sapiens, A-431; 72 hours with compounds; MTT cell viability assay; read-out: A431 cell (C5): pIC50 (converted)
Method: The squamous carcinoma cell line (A431) was used in a cell proliferation assay, to assess the inhibitory effect of the compounds in whole cells.
In a first step the A431 cells were incubated for 24 hours in the presence of 10% FCS serum. In the second step the cells were incubated for 72 hours with the compounds to be tested at a final concentration of 100 ng/ml. The effect of the compounds on the cell proliferation was finally assessed in a standard MTT cell viability assay.

IC50 (EGFR [1]) [nM]	melting point [°C]	IC50 (SKOV3 cells) [nM]	IC50 (EGFR [2]) [nM]	IC50 (EGFR [3]) [nM]	IC50 (A431 cells) [nM]	Compound
50.1	213.5 to 221.2	2880	32.6	556		COc1cc2ncnc3c2cc1OCCCCCOc1ccc(Cl)cc1N3 [Compound 4, 4,6-ethanediylidene-8H,18H-pyrimido[4,5-b][6,12,1]benzo-dioxaazacyclotetradecine, 16-chloro-9,10,11,12-tetrahydro-19-methoxy-]
398	243.3 to 251.2	4790	81.1	> 1000		COc1cc2ncnc3c2cc1OCCCCCCOc1ccccc1N3 [Compound 5, 4,6-ethanediylidene-19H-pyrimido[4,5-b][6,13,1]benzodioxaazacyclo-pentadecine, 8,9,10,11,12,13-hexahydro-20-methoxy-]
25.1	228.6 to 234.8	1820	4.4	359		COc1cc2ncnc3c2cc1OCCCCCCOc1ccc(Br)cc1N3 [Compound 6, 4,6-ethanediylidene-19H-pyrimido[4,5-b][6,13,1]benzodioxaazacyclo-pentadecine, 17-bromo-8,9,10,11,12,13-hexahydro-20-methoxy-]
79.4	240.6 to 243.7	> 10000	6.64	> 1000		COc1cc2ncnc3c2cc1OCCCCCCCOc1ccc(Cl)cc1N3 [Compound 7, 4,6-ethanediylidene-8H,20H-pyrimido[4,5-b][6,14,1]benzo-dioxaazacyclohexadecine, 18-chloro-9,10,11,12,13,14-hexahydro-21-methoxy-]
31.6	147.7 to 151.1	> 10000	3.97	329		COc1cc2ncnc3c2cc1OCCCCCCCCOc1ccc(Cl)cc1N3 [Compound 8, 4,6-ethanediylidene-21H-pyrimido[4,5-b][6,15,1]benzodioxaazacyclo-heptadecine, 19-chloro-8,9,10,11,12,13,14,15-octahydro-22-methoxy-]
39.8	177.4 to 183.8		6.79	> 1000		COc1cc2ncnc3c2cc1OCCCCCCCCCOc1ccc(Cl)cc1N3 [Compound 9, 4,6-ethanediylidene-8H,22H-pyrimido[4,5-b][6,16,1]benzo-dioxaazacyclooctadecine, 20-chloro-9,10,11,12,13,14,15,16-octahydro-23-methoxy-]
50.1		> 10000		> 1000	> 3160	COC(=O)c1ccc2c(c1)Nc1ncnc3cc(OC)c(cc13)OCCCCCCO2 [Compound 10, 4,6-ethanediylidene-19H-pyrimido[4,5-b][6,13,1]benzodioxaazacyclo-pentadecine-17-carboxylic acid, 8,9,10,11,12,13-hexahydro-20-methoxy-, methyl ester]
> 10000		> 10000		> 1000	> 3160	COc1cc2ncnc3c2cc1OCCCCCCOc1ccc(C(=O)O)cc1N3 [Compound 11, 4,6-ethanediylidene-19H-pyrimido[4,5-b][6,13,1]benzodioxaazacyclo-pentadecine-17-carboxylic acid, 8,9,10,11,12,13-hexahydro-20-methoxy-]
> 10000		> 10000		> 1000	> 3160	COc1cc2ncnc3c2cc1OCCCCCCOc1ccc(C(=O)N2CCCC2)cc1N3 [Compound 12, pyrrolidine, 1-[(8,9,10,11,12,13-hexahydro-20-methoxy-4,6-ethane-diylidene-19H-pyrimido[4,5-b][6,13,1]benzodioxaazacyclopentadecin-17-yl)carbonyl]-]
316		> 10000		> 1000	> 3160	COc1cc2ncnc3c2cc1OCCCCCCOc1ccc(C#N)cc1N3 [Compound 13, 4,6-ethanediylidene-19H-pyrimido[4,5-b][6,13,1]benzodioxaazacyclo-pentadecine-17-carbonitrile, 8,9,10,11,12,13-hexahydro-20-methoxy-]
> 10000		> 10000		> 1000	> 3160	COc1cc2ncnc3c2cc1OCCCCCCOc1ccc(C(=O)N2CCOCC2)cc1N3 [Compound 14, morpholine, 4-[(8,9,10,11,12,13-hexahydro-20-methoxy-4,6-ethane-diylidene-19H-pyrimido[4,5-b][6,13,1]benzodioxaazacyclopentadecin-17-yl)carbonyl]-]
2510				> 1000		Oc1cc2ncnc3c2cc1OCCCCCCOc1ccc(Br)cc1N3 [Compound 16, 4,6-ethanediylidene-19H-pyrimido[4,5-b][6,13,1]benzodioxaazacyclo-pentadecin-20-ol, 17-bromo-8,9,10,11,12,13-hexahydro-]
39.8		8320		269	2510	Brc1ccc2c(c1)Nc1ncnc3cc(OCCCN4CCOCC4)c(cc13)OCCCCCCO2 [Compound 17, 4,6-ethanediylidene-19H-pyrimido[4,5-b][6,13,1]benzodioxaazacyclo-pentadecine, 17-bromo-8,9,10,11,12,13-hexahydro-20-[3-(4-morpholinyl)propoxy]-acetic acid]
79.4		> 10000		> 1000		Brc1ccc2c(c1)Nc1ncnc3ccc(cc13)OCCCCCCO2 [Compound 18, 4,6-ethanediylidene-19H-pyrimido[4,5-b][6,13,1]benzodioxaazacyclo-pentadecine, 17-bromo-8,9,10,11,12,13-hexahydro-]
10		813		158	> 3160	COc1cc2ncnc3c2cc1OCCCCCCCc1ccc(Br)cc1N3 [Compound 21, 4,6-ethanediylidenepyrimido[4,5-b][6,1]benzoxaazacyclopentadecine, 17-bromo-8,9,10,11,12,13,14,19-octahydro-20-methoxy-]
15.8		257		38.4	1580	COc1cc2ncnc3c2cc1OCCCCCN(C)Cc1ccc(Br)cc1N3 [Compound 22, 4,6-ethanediylidenepyrimido[4,5-b][6,1,12]benzoxadiazacyclo-pentadecine, 17-bromo-8,9,10,11,12,13,14,19-octahydro-20-methoxy-13-methyl-]
